Results taken from PubChem BioAssay (NCI).
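How tested: cells in 96-well plates exposed to compound for 48 hours at five concentrations. Definition used: TGI = concentration required for complete inhibition of growth.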

How the values were obtained:
Assay in all cases: growth of human tumour cells (NCI), 48 h
SK-OV-3 ovarian = test system: SK-OV-3 ovarian
A498 renal = test system: A498 renal
UACC-62 melanoma = test system: UACC-62 melanoma
MDA-N = test system: MDA-N
HT29 colon = test system: HT29 colon
TK-10 renal = test system: TK-10 renal
SNB-19 CNS = test system: SNB-19 CNS
A549 NSCLC = test system: A549 NSCLC
UO-31 renal = test system: UO-31 renal
IGROV1 ovarian = test system: IGROV1 ovarian
HS 578T breast = test system: HS 578T breast
SF-295 CNS = test system: SF-295 CNS
HCC-2998 colon = test system: HCC-2998 colon
NCI-H23 lung = test system: NCI-H23 lung
SNB-75 CNS = test system: SNB-75 CNS
NCI-H226 lung = test system: NCI-H226 lung
SN12C renal = test system: SN12C renal
786-0 renal = test system: 786-0 renal
U251 CNS = test system: U251 CNS
MCF7 breast = test system: MCF7 breast
OVCAR-5 ovarian = test system: OVCAR-5 ovarian
SR leukemia = test system: SR leukemia
MOLT-4 leukemia = test system: MOLT-4 leukemia
SK-MEL-5 melanoma = test system: SK-MEL-5 melanoma
RPMI-8226 leukemia = test system: RPMI-8226 leukemia
HL-60(TB) leukemia = test system: HL-60(TB) leukemia
NCI/ADR-RES ovarian = test system: NCI/ADR-RES ovarian
OVCAR-4 ovarian = test system: OVCAR-4 ovarian
DU-145 prostate = test system: DU-145 prostate
K-562 leukemia = test system: K-562 leukemia
NCI-H460 lung = test system: NCI-H460 lung
HCT-116 colon = test system: HCT-116 colon
KM12 colon = test system: KM12 colon
OVCAR-8 ovarian = test system: OVCAR-8 ovarian
HCT-15 colon = test system: HCT-15 colon
MALME-3M melanoma = test system: MALME-3M melanoma
COLO 205 colon = test system: COLO 205 colon
BT-549 breast = test system: BT-549 breast
SK-MEL-28 melanoma = test system: SK-MEL-28 melanoma
M14 melanoma = test system: M14 melanoma
CCRF-CEM leukemia = test system: CCRF-CEM leukemia
NCI-H522 lung = test system: NCI-H522 lung
CAKI-1 renal = test system: CAKI-1 renal
EKVX NSCLC = test system: EKVX NSCLC
SF-268 CNS = test system: SF-268 CNS
T-47D breast = test system: T-47D breast
HOP-92 NSCLC = test system: HOP-92 NSCLC
OVCAR-3 ovarian = test system: OVCAR-3 ovarian
HOP-62 NSCLC = test system: HOP-62 NSCLC
LOX IMVI melanoma = test system: LOX IMVI melanoma
SK-MEL-2 melanoma = test system: SK-MEL-2 melanoma
RXF 393 renal = test system: RXF 393 renal
SW-620 colon = test system: SW-620 colon
ACHN renal = test system: ACHN renal
SF-539 CNS = test system: SF-539 CNS
MDA-MB-435 = test system: MDA-MB-435
PC-3 prostate = test system: PC-3 prostate
UACC-257 melanoma = test system: UACC-257 melanoma
MDA-MB-231 breast = test system: MDA-MB-231 breast

## COc1oc(C(=O)NC2CCCCC2)c(-c2ccc(Cl)cc2)c1S(=O)(=O)c1ccccc1
SK-OV-3 ovarian
  TGI: > 100 µM
A498 renal
  TGI: 4.08 µM
UACC-62 melanoma
  TGI: 72.2 µM
MDA-N
  TGI: > 100 µM
HT29 colon
  TGI: 5.42 µM
TK-10 renal
  TGI: > 89.1 µM
SNB-19 CNS
  TGI: > 100 µM
A549 NSCLC
  TGI: > 100 µM
UO-31 renal
  TGI: 3.22 µM
IGROV1 ovarian
  TGI: 3.35 µM
HS 578T breast
  TGI: 68.6 µM
SF-295 CNS
  TGI: > 62 µM
HCC-2998 colon
  TGI: > 100 µM
NCI-H23 lung
  TGI: > 25.5 µM
SNB-75 CNS
  TGI: > 100 µM
NCI-H226 lung
  TGI: > 100 µM
SN12C renal
  TGI: > 46.2 µM
786-0 renal
  TGI: 3.59 µM
U251 CNS
  TGI: 7.61 µM
MCF7 breast
  TGI: > 100 µM
OVCAR-5 ovarian
  TGI: > 100 µM
SR leukemia
  TGI: > 25.3 µM
MOLT-4 leukemia
  TGI: > 75.2 µM
SK-MEL-5 melanoma
  TGI: > 100 µM
RPMI-8226 leukemia
  TGI: 5.59 µM
HL-60(TB) leukemia
  TGI: 6.4 µM
NCI/ADR-RES ovarian
  TGI: 8.42 µM
OVCAR-4 ovarian
  TGI: 3.51 µM
DU-145 prostate
  TGI: > 74.4 µM
K-562 leukemia
  TGI: > 52.4 µM
NCI-H460 lung
  TGI: > 36.1 µM
HCT-116 colon
  TGI: > 100 µM
KM12 colon
  TGI: 25.2 µM
OVCAR-8 ovarian
  TGI: > 19.8 µM
HCT-15 colon
  TGI: > 100 µM
MALME-3M melanoma
  TGI: > 45.9 µM
COLO 205 colon
  TGI: 44.9 µM
BT-549 breast
  TGI: > 22.1 µM
SK-MEL-28 melanoma
  TGI: > 100 µM
M14 melanoma
  TGI: > 100 µM
CCRF-CEM leukemia
  TGI: 4.66 µM
NCI-H522 lung
  TGI: 2.94 µM
CAKI-1 renal
  TGI: 10.7 µM
EKVX NSCLC
  TGI: > 30.9 µM
SF-268 CNS
  TGI: 10.8 µM
T-47D breast
  TGI: > 100 µM
HOP-92 NSCLC
  TGI: 3.06 µM
OVCAR-3 ovarian
  TGI: 3.59 µM
HOP-62 NSCLC
  TGI: 22 µM
LOX IMVI melanoma
  TGI: 7.54 µM
SK-MEL-2 melanoma
  TGI: 39 µM
RXF 393 renal
  TGI: 9.76 µM
SW-620 colon
  TGI: > 100 µM
ACHN renal
  TGI: > 100 µM
SF-539 CNS
  TGI: 14.4 µM
MDA-MB-435
  TGI: 28.9 µM
PC-3 prostate
  TGI: > 41.3 µM

## O=[N+]([O-])c1ccc(N/N=C2\C=CCCC2)c([N+](=O)[O-])c1
SK-OV-3 ovarian
  TGI: > 100 µM
UACC-62 melanoma
  TGI: > 100 µM
MDA-N
  TGI: > 100 µM
HT29 colon
  TGI: > 100 µM
TK-10 renal
  TGI: > 100 µM
SNB-19 CNS
  TGI: > 100 µM
A549 NSCLC
  TGI: > 100 µM
UO-31 renal
  TGI: > 100 µM
IGROV1 ovarian
  TGI: > 100 µM
HS 578T breast
  TGI: > 100 µM
SF-295 CNS
  TGI: > 100 µM
NCI-H23 lung
  TGI: > 100 µM
SNB-75 CNS
  TGI: 73 µM
NCI-H226 lung
  TGI: > 100 µM
SN12C renal
  TGI: > 100 µM
786-0 renal
  TGI: > 100 µM
U251 CNS
  TGI: > 100 µM
MCF7 breast
  TGI: > 100 µM
OVCAR-5 ovarian
  TGI: > 100 µM
UACC-257 melanoma
  TGI: > 100 µM
SR leukemia
  TGI: > 100 µM
SK-MEL-5 melanoma
  TGI: > 100 µM
RPMI-8226 leukemia
  TGI: > 100 µM
HL-60(TB) leukemia
  TGI: > 100 µM
NCI/ADR-RES ovarian
  TGI: > 100 µM
OVCAR-4 ovarian
  TGI: > 100 µM
DU-145 prostate
  TGI: > 100 µM
K-562 leukemia
  TGI: > 100 µM
NCI-H460 lung
  TGI: > 100 µM
HCT-116 colon
  TGI: > 100 µM
KM12 colon
  TGI: > 100 µM
OVCAR-8 ovarian
  TGI: > 100 µM
HCT-15 colon
  TGI: > 100 µM
MALME-3M melanoma
  TGI: > 100 µM
COLO 205 colon
  TGI: > 100 µM
BT-549 breast
  TGI: > 100 µM
SK-MEL-28 melanoma
  TGI: > 100 µM
M14 melanoma
  TGI: > 100 µM
CCRF-CEM leukemia
  TGI: > 100 µM
NCI-H522 lung
  TGI: > 100 µM
CAKI-1 renal
  TGI: > 100 µM
EKVX NSCLC
  TGI: > 100 µM
SF-268 CNS
  TGI: > 100 µM
T-47D breast
  TGI: > 100 µM
HOP-92 NSCLC
  TGI: > 100 µM
OVCAR-3 ovarian
  TGI: > 100 µM
HOP-62 NSCLC
  TGI: > 100 µM
LOX IMVI melanoma
  TGI: > 100 µM
SK-MEL-2 melanoma
  TGI: > 100 µM
SW-620 colon
  TGI: > 100 µM
ACHN renal
  TGI: > 100 µM
MDA-MB-435
  TGI: > 100 µM
PC-3 prostate
  TGI: > 100 µM

## CCCCCCSC[C@H](OC(C)=O)[C@@H](OC(C)=O)[C@@H](OC(C)=O)[C@@H](COC(C)=O)OC(C)=O
SK-OV-3 ovarian
  TGI: > 100 µM
A498 renal
  TGI: > 100 µM
UACC-62 melanoma
  TGI: > 100 µM
MDA-N
  TGI: > 100 µM
HT29 colon
  TGI: > 100 µM
TK-10 renal
  TGI: > 100 µM
SNB-19 CNS
  TGI: > 100 µM
A549 NSCLC
  TGI: > 100 µM
UO-31 renal
  TGI: > 100 µM
IGROV1 ovarian
  TGI: > 100 µM
HS 578T breast
  TGI: > 100 µM
SF-295 CNS
  TGI: > 100 µM
HCC-2998 colon
  TGI: > 100 µM
NCI-H23 lung
  TGI: > 100 µM
SNB-75 CNS
  TGI: > 100 µM
NCI-H226 lung
  TGI: > 100 µM
SN12C renal
  TGI: > 100 µM
786-0 renal
  TGI: > 100 µM
U251 CNS
  TGI: > 100 µM
MCF7 breast
  TGI: > 100 µM
OVCAR-5 ovarian
  TGI: > 100 µM
UACC-257 melanoma
  TGI: > 100 µM
MOLT-4 leukemia
  TGI: 90.5 µM
SK-MEL-5 melanoma
  TGI: 62.1 µM
RPMI-8226 leukemia
  TGI: 50.1 µM
HL-60(TB) leukemia
  TGI: > 100 µM
NCI/ADR-RES ovarian
  TGI: > 100 µM
OVCAR-4 ovarian
  TGI: > 100 µM
DU-145 prostate
  TGI: > 100 µM
K-562 leukemia
  TGI: > 100 µM
MDA-MB-231 breast
  TGI: > 100 µM
NCI-H460 lung
  TGI: > 100 µM
HCT-116 colon
  TGI: > 100 µM
KM12 colon
  TGI: > 100 µM
OVCAR-8 ovarian
  TGI: > 100 µM
HCT-15 colon
  TGI: > 100 µM
MALME-3M melanoma
  TGI: > 100 µM
COLO 205 colon
  TGI: > 100 µM
BT-549 breast
  TGI: > 100 µM
SK-MEL-28 melanoma
  TGI: > 100 µM
M14 melanoma
  TGI: > 100 µM
CCRF-CEM leukemia
  TGI: > 100 µM
CAKI-1 renal
  TGI: > 100 µM
EKVX NSCLC
  TGI: > 100 µM
SF-268 CNS
  TGI: > 100 µM
T-47D breast
  TGI: > 100 µM
HOP-92 NSCLC
  TGI: > 100 µM
OVCAR-3 ovarian
  TGI: > 100 µM
HOP-62 NSCLC
  TGI: > 100 µM
LOX IMVI melanoma
  TGI: > 100 µM
SK-MEL-2 melanoma
  TGI: > 100 µM
RXF 393 renal
  TGI: > 100 µM
SW-620 colon
  TGI: > 100 µM
ACHN renal
  TGI: > 100 µM
SF-539 CNS
  TGI: > 100 µM
MDA-MB-435
  TGI: > 100 µM
PC-3 prostate
  TGI: 99.6 µM
